The values below come from article PMC5669903.

Values joined by “and” are separate entries in the source; they are usually repeats but may differ in a detail not shown here. Identical values can stand only once. Like-named read-outs stand apart in the source and are kept apart here.

In one assay the target is TMV CP monomer (Tobacco mosaic virus, UniProt P69687). The assay is described as follows: biochemical. The note with it: Kd to CP monomer.
The target of assay [1] is T1, TMV CP discs (Tobacco mosaic virus, UniProt P69687).
T1 construct: 6×His (N, cleaved yes); made in house; host or cells: Escherichia coli BL21 (DE3)-plysS, pET28a
It counts as binding. The following applies: for Kd: 20°C. The source says: We next determined the affinity between CP and NNM using two other independent methods, fluorescence spectrum and ITC.

Assay [2] concerns the target recombinant TMV CP four-layer aggregate discs (Tobacco mosaic virus, UniProt P69687). The assay can be described thus: Disassembly of recombinant TMV CP discs by SEC and TEM.
Assay [3] deals with wt CP four-layer aggregate discs (Tobacco mosaic virus, UniProt P69687). The assay can be described thus: Disassembly of wt CP discs (isolated from TMV particles) by SEC.
In another assay the target is TMV RNA. The assay can be described thus: ITC binding of NNM to TMV RNA. The note with it: 20°C. Details: species or system Tobacco mosaic virus.
The next assay concerns the target mutated CP discs (Tobacco mosaic virus, UniProt P69687, R72G/S16G/S50G/Y73G). The assay can be described thus: Disassembly of mutated CP discs by SEC and TEM. It counts as biochemical. The following applies: 1:20 (CP discs:NNM) ratio.
A further assay has as its system TMV. The assay is described as follows: Curative activity against TMV, half leaf. It is filed as in vivo, Tobacco mosaic virus. The note with it: for Curative activity against TMV: half leaf.
In assay [4] the target is T1, TMV CP discs. The assay is described as follows: biochemical. It counts as binding.
For another assay, the target named is T2, mutant TMV CP monomer (Tobacco mosaic virus, UniProt P69687, R72G/S16G/S50G/Y73G).
T2 construct: 6×His; made in house
The assay is described as follows: biochemical. It counts as binding. The following applies: Kd to mutant CP monomer, MST, 20°C.

The next assay concerns the target TMV particles. The assay is described as follows: MST binding of NNM to TMV particles. The arrangement: species or system Tobacco mosaic virus.
In a further assay the target is T3, Mutant CP Discs (Tobacco mosaic virus, UniProt P69687, R72G/S16G/S50G/Y73G).
T3 construct: 6×His; made in house
The assay is described as follows: biochemical. It counts as binding. The note with it: MST, 20°C.

A further assay deals with TMV CP replication. The assay can be described thus: Leaf disc method with western blot of TMV CP.
For assay [5], the target named is T4, TMV CP mutant (Tobacco mosaic virus, UniProt P69687, R72G/S16G/S50G/Y73G).
T4 construct: 6×His; made in house
It counts as binding. The note with it: fluorescence spectrum; 5 mM compounds and 0.5 mM TMV CP; read-out: Kd mutant (Fluo.).

The target in assay [6] is T4, TMV CP mutant. It counts as binding. The note with it: ITC, one-set-of-sites model; 5 mM compounds and 0.5 mM TMV CP.

T1 sequence (P69687 whole entry): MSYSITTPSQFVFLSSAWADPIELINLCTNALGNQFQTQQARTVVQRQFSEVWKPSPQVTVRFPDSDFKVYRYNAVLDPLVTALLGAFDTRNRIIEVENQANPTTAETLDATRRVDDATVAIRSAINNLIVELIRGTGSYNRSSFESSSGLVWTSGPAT
recombinant TMV CP four-layer aggregate discs, sequence (P69687 whole entry): as above
TMV CP monomer, sequence (P69687 whole entry): as above
T3 sequence (P69687 whole entry S16G/S50G/R72G/Y73G): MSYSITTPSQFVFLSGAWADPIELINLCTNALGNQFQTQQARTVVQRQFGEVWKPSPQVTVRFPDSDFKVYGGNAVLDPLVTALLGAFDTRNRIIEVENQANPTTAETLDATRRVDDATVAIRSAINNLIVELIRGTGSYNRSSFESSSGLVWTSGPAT
wt CP four-layer aggregate discs, sequence (P69687 whole entry): as the sequence (P69687 whole entry) above
T4 sequence (P69687 whole entry S16G/S50G/R72G/Y73G): as the sequence (P69687 whole entry S16G/S50G/R72G/Y73G) above
T2 sequence (P69687 whole entry S16G/S50G/R72G/Y73G): as above
mutated CP discs, sequence (P69687 whole entry R72G/S16G/S50G/Y73G, looked up): as the sequence (P69687 whole entry S16G/S50G/R72G/Y73G) above

Consider `CNCC(=O)N[C@@H](CO)C(=O)N[C@H]1[C@H](O)[C@@H](O)[C@H](n2ccc(N)nc2=O)O[C@@H]1C(N)=O` [NNM, Ningnanmycin], for which the Kd is 18.6 µM and ~18.6 µM on TMV CP monomer; 16.5 µM at TMV RNA; 1.1 to 3.96 µM at TMV CP discs [4] (Kd to CP discs); 1.1 µM and 1.29 µM and 3.96 µM and ~1.1 µM on TMV CP discs [4] (Kd to TMV CP discs); 212 µM and ~212 µM on mutant TMV CP monomer; 25.8 µM on TMV particles (20°C). Also, the Kd was 31 µM on TMV particles (25°C); 52.3 µM at TMV particles (30°C); 25.8 to 52.3 µM on TMV particles (from 20 to 30°C); 43.5 µM and ~43.5 µM at Mutant CP Discs (Kd to mutant CP discs). In addition, the “K (binding constant) to TMV CP discs” value at TMV CP discs [1] worked out at 534000 ± 27500 M⁻¹. Besides, the “number of NNM molecules interacting with one CP disc” value on TMV CP discs [1] was 39 to 41 and 39–41. The same compound registered a ΔG on TMV CP discs [1] of −6.0. The ΔH at TMV CP discs [1] is 17.2 kcal/mol. Also, the “disassembly of discs into monomeric proteins” value in assay [2] is given as “completely disassembled into monomeric proteins”. For the same compound, in [2], the “portion of the discs disassembled into monomeric proteins” value was 60%. Further, the “visibility of four-layer aggregate discs by TEM” value in [2] is “invisible”. Moreover, the “disassembly of wt CP four-layer aggregate discs” value in assay [3] is “completely disassembled into monomeric proteins”. Further, the “mutated protein discs disassembled into protein monomers” value on mutated CP discs is “approximately 35%”. Also, the “Curative activity against TMV” value with TMV (100 μg/mL) was 29.8%; in the assay on TMV (500 μg/mL), 60.0%. Further, the “bands of the CP in western blot” value in the assay on TMV CP replication (0.5 mg/mL NNM for 24 h) is reported as “weak”; with TMV CP replication (0.5 mg/mL NNM, after 72 h), “not visible”. Moreover, the “bands of CP in western blot” value with TMV CP replication (500 μg/mL NNM, time not stated) is on record as “weak”.
Cytosinpeptidemycin: the equilibrium dissociation constant (Kd) on TMV CP discs [1] (ITC, one-set-of-sites model) is 5.41 µM; at TMV CP discs [1] (fluorescence spectrum, read-out: Kd to TMV CP discs (Fluo.)), 23.2 µM; on TMV CP mutant [5], 250 µM; at TMV CP discs [4] (MST, 20°C, read-out: Kd to TMV CP discs), 4.84 µM; on TMV CP mutant [6], 33 µM. For the same compound, the “Curative activity against TMV” value with TMV (100 μg/mL) is given as 11.9%; in the assay on TMV (500 μg/mL), 48.7%. For the same compound, the “anti-TMV activity in words” value in the assay on TMV (500 μg/mL, vivo experiment) was “significant anti-TMV activities”. In addition, the “Kd to mutant CP discs” value on Mutant CP Discs is “No binding”; at Mutant CP Discs (listed as cytosinpeptidemycin), “no binding”.
